Where two headings read alike, the source gives them in different places.
Assays:
PGI2 synthesis = test: Prostacyclin stimulation in whole blood (collagen-induced, 6-keto-PGF1α radioimmunologically); assay type: cell-based; conditions: read-out: Stimulation of PGI2 synthesis (MEC)
Description: The 1,4-dihydrophyridines to be used according to the invention additionally stimulate the synthesis of PGI2. PGI2 has vasodilating and thrombocyte aggregation inhibiting activity, in contrast with the vasoconstrictor and thrombocyte aggregation […] action of thromboxan.
In whole blood, collagen induces the formation of PGI2. The endoperoxides formed in the thrombocytes are probably converted into PGI2 by leucocytes. The stable end product of PGI2 conversion, 6-keto-PGF1 α, is determined radioimmunologically (Table 2).

TXA2 synthesis = test: Inhibition of TXA2 synthesis (3H-arachidonic acid metabolism in washed human thrombocytes, TLC); assay type: cell-based; conditions: 10 min, 2 min pre-incubation, 10 min with 3H-arachidonic acid, 37° C., read-out: Minimal effective concentration for inhibition (MEC) of TXA2 synthesis
Source text: Arachidonic acid metabolism in human thrombocytes was investigated using tritium-labelled arachidonic acid. Thrombocytes metabolize arachidonic acid to TXA2 and HHT via the cyclooxygenase pathway and to 12-HETE via the lipoxygenase pathway, which can be separated by thin layer chromatography [cf Bailey, J.M. et al., Prostaglandins 13, 479-492, (1977)], Inhibitors of the individual enzymatic reactions alter the chromatographic distribution pattern in a characteristic manner.
Washed human thrombocytes from healthy donors who had taken no drug for 14 days were incubated for 2 minutes at 37° C. with the test substance and then incubated for a further 10 minutes at 37° C. with ^3 H-arachidonic acid. The suspension was acidified and extracted with ethyl acetate. The ethyl acetate was evaporated off under a nitrogen atmosphere and the residue was taken up in methanol/trichloromethane (1:1) and applied to TLC plastic sheets. Separation was performed using a trichloromethane/methanol/glacial acetic acid/water (80:8:1:0.8) mobile solvent mixture. The distribution of radioactivity was measured by means of a radioscanner (Table 1).

[1] = test system: isolated perfused guineapig hearts; test: Coronary and circulatory activity on isolated perfused guineapig hearts; conditions: Cavia porcellus, 10^-6 g/ml, difference to starting pressure set as 100%
Source text: The coronary and circulatory activities were discovered using isolated perfused guineapig hearts.
For this, the hearts of 250 to 350 g guineapigs are used. The animals are killed by a blow to the head, the thorax is opened, and a metal cannula is tied into the exposed aorta. The heart is removed from the thorax with the lungs and is connected to the perfusion apparatus through an aortic cannula, with continuous perfusion. The lungs are removed at the lung roots. A Krebs Henseleit solution (1) (118.5 mmol/l of NaCl, 4.75 mmol/l of KCl, 1.19 mmol/l of KH2 PO4, 1.19 mmol/l of MgSO4, 25 mmol/l of NaHCO3, 0.013 mmol/l of Na2 EDTA), which contains 1.2 mmol/l of CaCl2, is used as the perfusion medium. 10 mmol/l of glucose are added as an energy-liberating substrate. Before the perfusion the solution is filtered until free of particles. The solution is gassed with Carbogen (95% O2, 5% CO2) in order to maintain a pH value of 7.4. The hearts are perfused at a constant flow rate (10 ml/min) at 32° C. using a peristaltic pump.
In order to measure the cardiac function, a latex balloon filled with liquid and connected through a column of liquid to a pressure gauge is introduced into the left ventricle through the left auricle, and the isovolumetric contractions are recorded on a high-speed recorder (Opie, L., J. Physiol. 180 (1965) 529-541). The perfusion pressure is recorded using a pressure gauge which is connected to the perfusion system upstream of the heart. Under these conditions a decrease in the perfusion pressure indicates coronary dilation, and a rise or fall in the amplitude of contraction of the left ventricle indicates an increase or decrease in cardiac contractility. The compounds according to the invention are infused into the perfusion medium at suitable dilutions just upstream of the isolated heart.
The following values show, as an example, the effect of the compounds according to the invention on isolated perfused guineapig hearts, expressed as the percentage difference to the starting pressure, set as equivalent to 100%.

[2] = decrease indicates coronary dilation, read-out: % alteration in perfusion pressure
[3] = read-out: % alteration in contractility

With COC(=O)C1=C(C)NC(C)=C(C(=O)OCCc2ccc(C3=NNC(=O)CC3)cc2)C1CCc1cccnc1 (stereo not shown) [Example 21] the minimal effective concentration (PGI2 synthesis) was < 3 µg/mL.

CC(=O)C1=C(C)NC(C)=C(C(=O)OCc2ccc(C3=NNC(=O)CC3)cc2)C1CCc1cccnc1 (stereo not shown) [Example 18] was tested, and the minimal effective concentration (TXA2 synthesis) was 0.1 µg/mL.

CC1=C(C#N)C(CCc2cccnc2)C(C(=O)OCc2ccc(C3=NNC(=O)CC3)cc2)=C(C)N1 (stereo not shown) [Example 19] showed a minimal effective concentration (TXA2 synthesis) of 0.1 µg/mL.

In the case of COC(=O)C1=C(C)NC(C)=C(C(=O)OCc2ccc(C3=NNC(=O)CC3)cc2)C1c1ccccc1Cl (stereo not shown) [Example 13], the percent change at 1 µg/mL [1, 2] is reported as 0% and the inhibition at 1 µg/mL [1, 3] is reported as 78%.

In the case of CC1=C(C(=O)OCCCc2cccnc2)C(CCc2cccnc2)C(C(=O)OCCc2ccc(C3=NNC(=O)CC3)cc2)=C(C)N1 (stereo not shown) [Example 22], the minimal effective concentration (TXA2 synthesis) is reported as < 0.1 µg/mL and the minimal effective concentration (PGI2 synthesis) is reported as < 1 µg/mL.

Compound CCOC(=O)C1=C(C)NC(C)=C(C(=O)OCc2ccc(C3=NNC(=O)CC3)cc2)C1c1cccc([N+](=O)[O-])c1 (stereo not shown) [Example 7, Ethyl 4-(6-oxo-1,4,5,6-tetrahydropyridazin-3-yl)benzyl 1,4-dihydro-2,6-dimethyl-4-(3-nitrophenyl)-pyridine-3,5-dicarboxylate] has a percent change at 1 µg/mL [1, 2] of 0% and an inhibition at 1 µg/mL [1, 3] of 60%.

COC(=O)C1=C(C)NC(C)=C(C(=O)OCc2ccc(C3=NNC(=O)CC3)cc2)C1CCc1cccnc1 (stereo not shown) [Example 16] was tested, and the minimal effective concentration (TXA2 synthesis) was 0.1 µg/mL.

CC1=C(C(=O)OCCCc2cccnc2)C(CCc2cccnc2)C(C(=O)OCc2ccc(C3=NNC(=O)CC3)cc2)=C(C)N1 (stereo not shown) [Example 11] was tested, and the minimal effective concentration (TXA2 synthesis) was 0.1 µg/mL, the inhibition at 1 µg/mL [1, 2] was 36% and the inhibition at 1 µg/mL [1, 3] was 23%.

From patent US4876255A, “Substituted 1,4-dihydropyridines for control of circulation and thromboses” (Bayer Aktiengesellschaft, priority 1987, dated 1989)
